Results: ChEMBL document CHEMBL1148801, “Structural modification of the P2' position of 2,7-dialkyl-substituted 5(S)-amino-4(S)-hydroxy-8-phenyl-octanecarboxamides: the discovery of aliskiren, a potent nonpeptide human renin inhibitor active after once daily dosing in marmosets” (J Med Chem, 2007)

Legend:
Renin [1] = target: T1, Renin (Callithrix jacchus, UniProt Q9TSZ1); type: cell-free, Plasma
T1 sequence (Q9TSZ1 whole entry): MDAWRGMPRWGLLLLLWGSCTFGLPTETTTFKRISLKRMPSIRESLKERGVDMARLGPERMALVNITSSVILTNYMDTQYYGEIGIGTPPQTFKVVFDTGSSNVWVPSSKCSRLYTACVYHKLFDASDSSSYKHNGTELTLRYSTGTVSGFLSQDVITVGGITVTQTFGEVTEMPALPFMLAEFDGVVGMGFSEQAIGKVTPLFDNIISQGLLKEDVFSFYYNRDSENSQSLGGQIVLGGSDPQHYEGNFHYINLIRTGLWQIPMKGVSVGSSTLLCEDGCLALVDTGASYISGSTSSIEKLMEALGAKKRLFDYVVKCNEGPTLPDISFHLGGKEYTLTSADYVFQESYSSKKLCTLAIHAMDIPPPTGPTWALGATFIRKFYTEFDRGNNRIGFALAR

Renin [2] = target: T2, Renin (Homo sapiens, UniProt P00797)
T2 sequence (P00797 whole entry): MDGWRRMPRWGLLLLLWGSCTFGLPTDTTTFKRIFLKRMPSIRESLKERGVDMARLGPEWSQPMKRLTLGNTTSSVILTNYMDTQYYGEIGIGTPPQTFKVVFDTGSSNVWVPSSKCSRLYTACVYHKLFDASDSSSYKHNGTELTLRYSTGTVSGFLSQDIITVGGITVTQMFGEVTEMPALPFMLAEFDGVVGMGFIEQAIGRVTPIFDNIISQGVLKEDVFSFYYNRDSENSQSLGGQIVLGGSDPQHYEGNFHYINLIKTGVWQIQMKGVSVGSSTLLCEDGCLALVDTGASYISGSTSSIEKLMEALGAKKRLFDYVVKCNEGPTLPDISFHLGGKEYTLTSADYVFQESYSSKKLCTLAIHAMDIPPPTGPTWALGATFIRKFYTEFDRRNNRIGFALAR

Renin [3] = target: T2, Renin; remark: listed apart in the source
Cathepsin D = Cathepsin D (Homo sapiens, UniProt P07339)
in vivo [4] = conditions: marmoset
Cathepsin E = target: T3, Cathepsin E (Homo sapiens, UniProt P14091)
T3 sequence (P14091 whole entry): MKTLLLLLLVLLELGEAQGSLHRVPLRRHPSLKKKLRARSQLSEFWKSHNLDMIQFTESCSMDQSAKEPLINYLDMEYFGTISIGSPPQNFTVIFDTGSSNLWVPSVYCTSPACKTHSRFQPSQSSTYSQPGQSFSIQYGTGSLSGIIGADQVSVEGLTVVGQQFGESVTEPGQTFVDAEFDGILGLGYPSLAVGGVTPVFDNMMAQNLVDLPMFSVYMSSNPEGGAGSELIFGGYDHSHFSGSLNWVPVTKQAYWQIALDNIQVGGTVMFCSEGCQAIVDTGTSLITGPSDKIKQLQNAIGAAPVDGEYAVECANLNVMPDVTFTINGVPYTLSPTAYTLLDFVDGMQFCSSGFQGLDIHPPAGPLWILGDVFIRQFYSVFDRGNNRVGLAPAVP

Beta-secretase 1 = Beta-secretase 1 (Homo sapiens, UniProt P56817)
Pepsin A = Pepsin A (Homo sapiens, UniProt P0DJD9)
in vivo [5] = conditions: rat, po
in vivo [6] = conditions: dog, po
in vivo [7] = conditions: marmoset, po, 3 mg/kg
physchem [8] = assay: physchem
physchem [9] = conditions: buffer, pH 7.4
physchem [10] = conditions: octanol/water, pH 7.4
physchem [11] = conditions: octanol/water, pH 6.8
physchem [12] = assay: physchem; remark: listed apart in the source
physchem [13] = conditions: water
Callithrix jacchus = organism: Callithrix jacchus; type: functional, Plasma

Chain of Pepsin A (P0DJD9 whole entry): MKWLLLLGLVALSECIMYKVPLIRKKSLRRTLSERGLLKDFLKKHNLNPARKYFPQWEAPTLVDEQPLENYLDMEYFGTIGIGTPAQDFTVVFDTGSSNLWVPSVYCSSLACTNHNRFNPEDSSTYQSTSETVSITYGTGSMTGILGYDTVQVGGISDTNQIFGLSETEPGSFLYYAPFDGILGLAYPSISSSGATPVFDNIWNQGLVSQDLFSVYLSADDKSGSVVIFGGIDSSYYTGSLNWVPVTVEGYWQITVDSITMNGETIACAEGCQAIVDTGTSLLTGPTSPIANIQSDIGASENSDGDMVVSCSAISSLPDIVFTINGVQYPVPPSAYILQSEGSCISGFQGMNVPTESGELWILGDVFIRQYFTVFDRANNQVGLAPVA
Chain of Beta-secretase 1 (P56817 whole entry): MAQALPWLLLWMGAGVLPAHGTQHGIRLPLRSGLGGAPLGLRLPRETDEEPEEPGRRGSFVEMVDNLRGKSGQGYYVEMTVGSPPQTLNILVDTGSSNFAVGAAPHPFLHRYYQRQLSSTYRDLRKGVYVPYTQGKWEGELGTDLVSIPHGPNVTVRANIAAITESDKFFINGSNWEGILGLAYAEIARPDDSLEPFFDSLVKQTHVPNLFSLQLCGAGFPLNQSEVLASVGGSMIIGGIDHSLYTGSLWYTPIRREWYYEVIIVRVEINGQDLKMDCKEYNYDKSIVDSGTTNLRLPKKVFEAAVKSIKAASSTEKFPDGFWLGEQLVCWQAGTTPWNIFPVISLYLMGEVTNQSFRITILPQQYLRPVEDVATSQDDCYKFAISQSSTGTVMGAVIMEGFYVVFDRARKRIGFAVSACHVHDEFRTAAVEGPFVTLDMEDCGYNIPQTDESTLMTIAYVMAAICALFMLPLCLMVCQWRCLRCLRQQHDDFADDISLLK
Chain of Cathepsin D (P07339 65-162 limits assumed): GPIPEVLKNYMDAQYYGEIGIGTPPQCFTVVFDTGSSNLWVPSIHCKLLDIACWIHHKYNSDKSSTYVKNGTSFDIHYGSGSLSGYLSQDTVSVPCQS
Chain of Cathepsin D (P07339 169-412 limits assumed): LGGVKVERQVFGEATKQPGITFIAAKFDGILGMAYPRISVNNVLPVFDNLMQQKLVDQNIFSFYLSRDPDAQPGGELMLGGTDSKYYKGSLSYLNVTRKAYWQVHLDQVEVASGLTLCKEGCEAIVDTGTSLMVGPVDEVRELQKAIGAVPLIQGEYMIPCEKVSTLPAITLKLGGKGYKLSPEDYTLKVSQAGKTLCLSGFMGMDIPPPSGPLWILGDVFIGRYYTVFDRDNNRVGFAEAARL

Row | Structure (SMILES) | IC50 (Renin [1]) | IC50 (Renin [2]) | IC50 (Renin [3]) | other results
1 | COCCCOc1cc(C[C@@H](C[C@H](N)[C@@H](O)C[C@H](C(=O)NCCN2CCOCC2)C(C)C)C(C)C)ccc1OC | 3 nM | 0.4 nM | 1 nM | 
2 | COCCCOc1cc(C[C@@H](C[C@H](N)[C@@H](O)C[C@H](C(=O)NCC(C)(C)C(N)=O)C(C)C)C(C)C)ccc1OC.Cl |  |  |  | IC50 (Cathepsin D): > 10 µM; half-life (in vivo [4]): 522 min; IC50 (Cathepsin E): > 10 µM; IC50 (Beta-secretase 1): > 10 µM; IC50 (Pepsin A): > 10 µM; bioavailability (in vivo [5]): 2.4%; bioavailability (in vivo [6]): 32%; bioavailability (in vivo [7]): 16%
3 | CNC(=O)C(C)(C)CNC(=O)[C@@H](C[C@H](O)[C@@H](N)C[C@H](Cc1ccc(OC)c(OCCCOC)c1)C(C)C)C(C)C.Cl | 2 nM | 0.4 nM | 0.7 nM | bioavailability (in vivo [7]): 25%
4 | COCCCOc1cc(C[C@@H](C[C@H](N)[C@@H](O)C[C@H](C(=O)NCC(C)(C)C(N)=O)C(C)C)C(C)C)ccc1OC.COCCCOc1cc(C[C@@H](C[C@H](N)[C@@H](O)C[C@H](C(=O)NCC(C)(C)C(N)=O)C(C)C)C(C)C)ccc1OC.O=C(O)/C=C/C(=O)O [ALISKIREN FUMARATE] |  |  |  | solubility (physchem [8]): 440 µg/mL; solubility (physchem [9]): > 100 mg/mL; logD (physchem [10]): 2.5; logD (physchem [11]): 0.1; pKa (physchem [12]): 9.2
5 | COCCCOc1cc(C[C@@H](C[C@H](N)[C@@H](O)C[C@H](C(=O)NCCC(=O)N(C)C)C(C)C)C(C)C)ccc1OC |  |  |  | logD (physchem [10]): 2.48; pKa (physchem [12]): 9.4
6 | COCCCOc1cc(C[C@@H](C[C@H](N)[C@@H](O)C[C@H](C(=O)NCC(C)(C)N2CCOCC2)C(C)C)C(C)C)ccc1OC | 18 nM | 0.6 nM | 2 nM | 
7 | COCCCOc1cc(C[C@@H](C[C@H](N)[C@@H](O)C[C@H](C(=O)NC[C@H]2CCC(=O)N2)C(C)C)C(C)C)ccc1OC.Cl | 2 nM | 2 nM | 1 nM | solubility (physchem [13]): > 100 mg/mL; logD (physchem [10]): 2.06; pKa (physchem [12]): 9.09
8 | CCCCNC(=O)[C@@H](C[C@H](O)[C@@H](N)C[C@H](Cc1ccc(OC)c(OCCCOC)c1)C(C)C)C(C)C.Cl |  |  |  | Inhibition (Callithrix jacchus): 79%
9 | COCCCOc1cc(C[C@@H](C[C@H](N)[C@@H](O)C[C@H](C(=O)NCCC(=O)N(C)C)C(C)C)C(C)C)ccc1OC.Cl |  |  |  | bioavailability (in vivo [7]): 14%
10 | COCCCCc1cc(C[C@@H](C[C@H](N)[C@@H](O)C[C@H](C(=O)NCC(C)(C)C(N)=O)C(C)C)C(C)C)ccc1OC.Cl | 4 nM | 1 nM | 3 nM | bioavailability (in vivo [7]): 8%; logD (physchem [10]): 3.31; pKa (physchem [12]): 9.44
11 | COCCCOc1cc(C[C@@H](C[C@H](N)[C@@H](O)C[C@H](C(=O)NC(C)(C)CN2CCOCC2)C(C)C)C(C)C)ccc1OC |  | 16 nM | 27 nM | 
12 | COCCCOc1cc(C[C@@H](C[C@H](N)[C@@H](O)C[C@H](C(=O)N[C@@H](C)CC(N)=O)C(C)C)C(C)C)ccc1OC | 3 nM | 1 nM | 2 nM | 
13 | COCCCCc1cc(C[C@@H](C[C@H](N)[C@@H](O)C[C@H](C(=O)NCCN2CCOCC2)C(C)C)C(C)C)ccc1OC.Cl | 1 nM | 2 nM | 0.9 nM | bioavailability (in vivo [7]): 30%; logD (physchem [10]): 2.85; pKa (physchem [12]): 6.01
14 | COCCCOc1cc(C[C@@H](C[C@H](N)[C@@H](O)C[C@H](C(=O)NCCc2nn[nH]n2)C(C)C)C(C)C)ccc1OC | 2 nM | 2 nM | 2 nM | 
15 | COCCCOc1cc(C[C@@H](C[C@H](N)[C@@H](O)C[C@H](C(=O)NC(C)CN2CCOCC2)C(C)C)C(C)C)ccc1OC (stereo partly specified) | 9 nM | 3 nM |  | 
16 | CC[C@H](NC(=O)[C@@H](C[C@H](O)[C@@H](N)C[C@H](Cc1ccc(OC)c(OCCCOC)c1)C(C)C)C(C)C)C(N)=O | 1 nM | 0.8 nM |  | 
17 | COCCCOc1cc(C[C@@H](C[C@H](N)[C@@H](O)C[C@H](C(=O)N[C@@H](CO)C(N)=O)C(C)C)C(C)C)ccc1OC | 6 nM | 2 nM | 3 nM | 
18 | COCCCOc1cc(C[C@@H](C[C@H](N)[C@@H](O)C[C@H](C(=O)N[C@H](C)CC(N)=O)C(C)C)C(C)C)ccc1OC | 28 nM | 6 nM | 57 nM | 
19 | COCCCOc1cc(C[C@@H](C[C@H](N)[C@@H](O)C[C@H](C(=O)NC[C@@H]2CCC(=O)N2)C(C)C)C(C)C)ccc1OC.Cl | 3 nM | 0.6 nM | 0.9 nM | bioavailability (in vivo [7]): 22%
20 | COCCCOc1cc(C[C@@H](C[C@H](N)[C@@H](O)C[C@H](C(=O)NC(C)(C)C(N)=O)C(C)C)C(C)C)ccc1OC | 200 nM | 13 nM | 100 nM | 
21 | COCCCOc1cc(C[C@@H](C[C@H](N)[C@@H](O)C[C@H](C(=O)NCC(C)(C)C(=O)O)C(C)C)C(C)C)ccc1OC | 13 nM | 3 nM | 13 nM | 
22 | COCCCOc1cc(C[C@@H](C[C@H](N)[C@@H](O)C[C@H](C(=O)NCCCN2CCOCC2)C(C)C)C(C)C)ccc1OC | 3 nM | 3 nM | 3 nM | 
